Data reported in publication PMC12422182 (Science Advances, 2025).
Each block holds one molecule with its values, some of them ahead of it.

What was measured:
[1] = biological target: OBP13; assay: fluorescence titration, Scatchard analysis; type: binding, Locusta migratoria
[2] = biological target: OBP13; assay: competitive fluorescence binding assay; design: species or system Locusta migratoria
[3] = biological target: Clvs2; assay: microscale thermophoresis; type: binding, Locusta migratoria

- Kd [1]: 13.8 µM
Molecule: c1ccc(Nc2cccc3ccccc23)cc1 [1-NPN, N-phenyl-1-naphthylamine]

- Ki [2]: 3.46 µM
Molecule: C=Cc1ccc(OC)cc1 [4VA, 4-vinylanisole]

- Kd [3]: 5.86 ± 0.59 µM
Molecule: phosphatidylinositol 4,5-bisphosphate [PI(4,5)P2]
